# Measured values: the supplement of paper PMC11208160
# Assay: recombinant barcode read abundance after kanamycin selection (control-corrected) (log10(CPM+1)); higher = more efficient recombination; sequences stand for … in AGTGCAGAGAAAATCGGCCAGTTTTCTCTGCCTGCAGTCCGCATGCCGT…AGATTTATGCAGCGGACTGCCTTTCTCCCAAAGTGATAAACCGGACAGTATCATGGACCGGTTTTCCCGGTAATCCGTATTTGCAAGGTTGGTTTCACT; site = the 11-nt target
# Outline: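 Pooled oligos, each joining a target to an IS621 bridge RNA target-binding loop, were cloned and co-electroporated with a donor plasmid into E. coli. Selective plates carried chloramphenicol/ampicillin/kanamycin and 0.1 mM IPTG, while chloramphenicol/ampicillin LB agar served as control, with two replicates of each. Recombination efficiency rests on averaged, control-corrected counts per million of barcodes at recombinant junctions, shown as log10(CPM+1).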
# 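Note: IS621 recombinase and bridge RNA in Escherichia coli cells.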
row,Sequence,recombinant barcode read abundance (log10)
1,ACTAGGACTTGGGTTCTAACCTGTTGCGC (site ACTAGGACTTC),0.0123
2,CTGGTCCCTTGGGTTCTAACCTGTTGCGG (site CTGTTCCCTCC),0.151
3,TTCGTTGCTTGGGTTCTAACCTGTTGCCT (site ATCGTTGCTAG),0.0494
4,ATCTTGTCTTGGGTTCTAACCTGTTGCGG (site CATGATACTAG),0.102
5,TGTCTGCCTTGGGTTCTAACCTGTTGCCT (site GGTCTGCCTAG),0.0534
6,TCACGTCCTTGGGTTCTAACCTGTTGCTT (site TCACGTCCTAT),0.145
7,CATTCTGCTTGGGTTCTAACCTGTTGCCT (site CATTCTGCTAG),0.12
8,GAAAATCCTTGGGTTCTAACCTGTTGCCT (site GAAAGTCCTAG),0.0177
9,GTGAGGACTTGGGTTCTAACCTGTTGCCA (site GTGAGGACTTG),1.53
10,CAAGTTGCTTGGGTTCTAACCTGTTGCCT (site CAAGTGGCTAG),0.227
11,GTAACTGCTTGGGTTCTAACCTGTTGCCT (site GTAATTGCTAG),0.0184
12,TGTAGTCCTTGGGTTCTAACCTGTTGCAT (site TGTAGTCCTAG),0.156
13,CGATAGCCTTGGGTTCTAACCTGTTGCCT (site TGATAGCCTAG),0
14,CCTTAGCCTTGGGTTCTAACCTGTTGCCT (site CCTTAGCCTAG),0.385
15,ATCTTGTCTTGGGTTCTAACCTGTTGCCG (site ATCTTGTCTCG),0.0848
16,TAACCTTCTTGGGTTCTAACCTGTTGCCT (site TAACCTACTAG),0
17,CGCCCTACTTGGGTTCTAACCTGTTGCTT (site CGCCTAACTAA),0.491
18,GGTGCTCCTTGGGTTCTAACCTGTTGCAT (site GGTGCTCCTTT),0.0242
19,CAAAGGCCTTGGGTTCTAACCTGTTGCCT (site CAACGGCCTAG),0.0335
20,GTGGCCACTTGGGTTCTAACCTGTTGCCT (site GTAGCCACTAG),1.86
21,CGGTGTCCTTGGGTTCTAACCTGTTGCTA (site CGGGGTCCTTA),0.225
22,CTCCCAACTTGGGTTCTAACCTGTTGCCT (site TTCCCTACTAG),0.446

row,Sequence,recombinant barcode read abundance (log10)
1,CCGCTAGCTTGGGTTCTAACCTGTTGCCT (site CCGCTAGCTAG),0.183
2,CTCATTCCTTGGGTTCTAACCTGTTGCCT (site CTCATTCCTAC),0.216
3,GCCGACCCTTGGGTTCTAACCTGTTGCCG (site GCCTACCCTCC),0.0507
4,GGACATGCTTGGGTTCTAACCTGTTGCGT (site CGACATACTAC),0.219
5,GTTGGCCCTTGGGTTCTAACCTGTTGCCT (site GATGGCCCTAG),0.579
6,GTCGAGCCTTGGGTTCTAACCTGTTGCCT (site GTCGAGCCTAG),2.12
7,CCGGAGCCTTGGGTTCTAACCTGTTGCCT (site CCGGAGCCTAG),2.41
8,CAAAAGGCTTGGGTTCTAACCTGTTGCCT (site CAAAAGGCTAG),0.0565
9,TGCGTAACTTGGGTTCTAACCTGTTGCCA (site GAACCTCCTAT),0.0676
10,GATAGAGCTTGGGTTCTAACCTGTTGCCG (site GATAGAGCTCG),0.772
11,GAGCGCTCTTGGGTTCTAACCTGTTGCCG (site GAGCGTTCTAG),0.269
12,GTACGTCCTTGGGTTCTAACCTGTTGCTT (site GTACGTCCTAA),0.777
13,CACTGATCTTGGGTTCTAACCTGTTGCCT (site CACTGATCTAG),1.28
14,CTCTATCCTTGGGTTCTAACCTGTTGCGT (site CTCTATCCTAC),0.551
15,TTGAGATCTTGGGTTCTAACCTGTTGCCT (site TTGAAATCTAG),0.0577
16,ACTTGTACTTGGGTTCTAACCTGTTGCAT (site ACTTGTACTAT),1.22
17,GATTCTACTTGGGTTCTAACCTGTTGCTT (site GAATCTACTAA),0.155
18,GGGAAGACTTGGGTTCTAACCTGTTGCCT (site GGGAAGACTAG),2.55
19,CTATTGTCTTGGGTTCTAACCTGTTGCGA (site CTATTGTCTAC),0.0206
20,CTCTAGACTTGGGTTCTAACCTGTTGCCA (site CTCTATACTTG),0.0325
21,AATGGGACTTGGGTTCTAACCTGTTGCTG (site AATGGGACTCA),2.47
22,GGGTCCACTTGGGTTCTAACCTGTTGCGT (site GGGTCCACTAG),1.5

row,Sequence,recombinant barcode read abundance (log10)
1,GACTTAACTTGGGTTCTAACCTGTTGCTT (site CCTAAGTCTTG),0.0154
2,GCCGCGACTTGGGTTCTAACCTGTTGCCT (site GCAGCGACTAG),0.207
3,TAAGACGCTTGGGTTCTAACCTGTTGCCT (site TAAGACGCTAG),2.33
4,TGTGTCCCTTGGGTTCTAACCTGTTGCCT (site TGGGTCCCTAG),0.123
5,GCACAACCTTGGGTTCTAACCTGTTGCCT (site GCACCACCTAG),0.0258
6,TTCACGCCTTGGGTTCTAACCTGTTGCCT (site TTCTCGCCTAG),0.214
7,GATCTGCCTTGGGTTCTAACCTGTTGCCT (site GATCAGCCTAG),0.246
8,CTCTAGACTTGGGTTCTAACCTGTTGCCA (site CTCTACACTTG),0.0305
9,TAGGCTCCTTGGGTTCTAACCTGTTGCCT (site TAAGATCCTAG),0.205
10,CGGCTCACTTGGGTTCTAACCTGTTGCTA (site CGGCTCACTTA),2.31
11,CAAACAACTTGGGTTCTAACCTGTTGCCT (site CAAACAGCTAG),0.101
12,GTATCAACTTGGGTTCTAACCTGTTGCCT (site GTATCACCTAG),0.0908
13,AAGTCGTCTTGGGTTCTAACCTGTTGCTA (site GCAATTGCTAG),0.132
14,CGCTTACCTTGGGTTCTAACCTGTTGCCT (site CGCTTACCTAG),0.0899
15,TTCTGTGCTTGGGTTCTAACCTGTTGCCT (site TTCTGAGCTAG),0.0672
16,AAGCATCCTTGGGTTCTAACCTGTTGCCT (site AGGCATCCTAG),0.358
17,GGTCAACCTTGGGTTCTAACCTGTTGCCT (site GATCAACCTAG),0.394
18,GTATGAGCTTGGGTTCTAACCTGTTGCCT (site GTATGACCTAG),0.0478
19,TAGTACTCTTGGGTTCTAACCTGTTGCTG (site TAGTACTCTTA),0.0609
20,AATTGGACTTGGGTTCTAACCTGTTGCTT (site AATTGGACTAA),0.355
21,TTGACATCTTGGGTTCTAACCTGTTGCCT (site TTGATATCTAG),0.147
22,TGTCTCCCTTGGGTTCTAACCTGTTGCCG (site TGTGTCCCTCG),0.108
